In patent publication US8759537B2, “3H-imidazo [4, 5-C] pyridine-6-carboxamides as anti-inflammatory agents” (Boehringer Ingelheim International GmbH, priority 2010, dated 2014):

Columns and labels:
mPGES-1 [1] = molecular target: T1, mPGES-1 (Homo sapiens (Human), UniProt O14684); assay: mPGES-1 enzyme assay (HTRF detection of PGE2); assay type: biochemical
Method: Microsomes from Rosetta E. coli bacteria expressing recombinant human mPGES-1 can be derived as described below:
Inoculate 5 ml LB with Ampicilin (50 μg/ml) and Chloramphenicol (34 μg/ml) with bacteria from freeze culture. Incubate 8 h at 37° C. with 200 rpm. Thereafter, inoculate 500-1000 ml LB containing Amp and Chloro with the 5 ml on culture and grow to OD640 of 0.8-1.0. Chill the culture to +4° C. before induction. Induce the culture with IPTG at a final concentration of 400 μM. Express the protein at room temp 18-23° C. with 200 rpm shaking over night.
The following steps can be performed on the following day: • 1. Spin down the cells in 250 ml centrifuge flasks for 15 min at 7000 rpm (Beckmann Coulte Avanti J-E centrifuge) • 2. Dissolve the pellet from 250 ml culture in 12.5 ml homogenization buffer • 3. (15 mM Tris-HCL pH8, 1 mM EDTA pH8, […], 2.5 mM GSH, 1 Tablet Protease inhibitor per 50 ml buffer) • 4. […] Add 2.5 ml MgCl2 (100 mM) and DNase 12.5 μl (0.8 mg/ml) and incubate on ice for 30 min • 6. Spin down the bacteria debris and save the supernatant, 7000 rpm for 15 min • 7. Isolate the protein containing membranes in the supernatant by ultracentrifugation 120000×g for 2 hour at 4° C. (Sorvall T880 rotor). • 8. Discard the supernatant and dissolve the pellet in 20 mM Potassium phosphate buffer pH7.4 (KH2PO4 and K2HPO4) buffer by sonication (5×10 s, 30% of a 50 W sonifier) and aliquot the enzyme and store aliquots at −80° C.
Before each experiment is performed an aliquot of the enzyme is thawed and it can then be dissolved in 0.1 M Potassium phosphate buffer pH7.4 (KH2PO4 and K2HPO4) buffer containing 2.5 mM GSH.
The aim of this assay is to determine the affinity of a test compound for the mPGES-1 enzyme.
47 μl of recombinant human mPGES-1 (˜0.5 μg protein/well) containing microsomal suspension in a buffer containing GSH, (2.5 mmol/L L-Glutathione reduced, dissolved in 0.1 mol/L Phosphat Buffer pH 7.4) is dispensed in a 384-well plate and thereafter 1 μl of the test compound(s) is/are added and incubated for 25 minutes at room temperature. The enzyme reaction is started by the addition of 2 ul PGH2 (final conc. 2 μM) dissolved in water-free Diglyme. After 60 seconds the reaction is terminated by addition of a stop solution containing FeCl2 (10 μL 0.074 mol/l FeCl2). The samples are diluted between 1:25 in PBS (Phosphate Buffered Saline). 10 μl of the diluted samples are transferred to 384-well low volume plate. In order to quantify the amount of PGE2 that has been formed, a homogenous time resolved fluorescent (HTRF) detecting of PGE2 has been performed using a commercially available kit from Cisbio according to the manufactures recommendation. […] Briefly, the diluted samples are mixed with 5 μl PGE2-d2 conjungate and 5 μl anti-PGE2 cryptate conjungate. After an incubation period of the plates over night, the fluorescence is measured by the use of an appropriate microplate reader.
The quantification plate contains also wells with different concentrations of PGE2 as calibration curve for the calculation of the PGE2 concentrations from the HTRF ratio values.
From all mPGES enzyme assay the background is subtracted and the IC50 is calculated over a nonlinear regression with conventional software.

mPGES-1 [2] = molecular target: T1, mPGES-1; assay: A549 cell-based assay (PGE2 formation, IL-1β stimulated, 50% human serum); details: A549 cells
Method: Although the enzymatic assay is a high throughput assay the disadvantage is that it uses a recombinant protein which is not in its natural environment. Accordingly a cellular assay was established in which a cell line of human origin (A549) expressing the mPGES-1 protein was used. In addition in order to mimic the situation in humans in which compounds can be bound to plasma proteins 50% human serum is added in the assay.
Cells were detached using Trypsin-EDTA. A549 cells were seeded in a 384-well collagene plate at a density of 7000 cells/well (50 μl) in F-12 medium containing 1% Penicillin-Streptomycin and 50% human serum. The cells were allowed to attach for 3-4 h. […] The total volume is 100 μl.
Concentrations of PGE2 in the cell free medium (10 μl) were measured using a commercially available HTRF kit from Cisbio (as described above). The PGE2 formation in the absence of test compound was taken as 100%.
IC50 values were derived from at 6-8 point titrations using conventional software.

[3] = Table C comparison of selected benzimidazoles, read-out: Enzym IC50
[4] = Table C comparison of selected benzimidazoles, read-out: Cell IC50
[5] = recombinant human mPGES-1 microsomes, PGH2 2 μM, read-out: mPGES-1 inhibitory effect in the enzyme assay, IC50
[6] = IL-1β 5 ng/ml, read-out: mPGES-1 inhibitory effect in the cell assay, IC50

T1 sequence (O14684 whole entry): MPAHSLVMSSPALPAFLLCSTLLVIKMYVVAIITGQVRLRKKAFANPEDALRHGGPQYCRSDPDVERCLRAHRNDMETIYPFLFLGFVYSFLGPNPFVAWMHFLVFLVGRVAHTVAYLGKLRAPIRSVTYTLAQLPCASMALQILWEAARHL

Row | Compound | IC50 (mPGES-1 [1]; [3]) | IC50 (mPGES-1 [2]; [4]) | IC50 (mPGES-1 [1]; [5]) | IC50 (mPGES-1 [2]; [6])
1 | Cn1c(Nc2cc(CNC(=O)C(C)(C)C)ccc2Cl)nc2cc(C(=O)N[C@H]3CC[C@H](C(F)(F)F)CC3)c(OCC(F)F)cc21 [[drawing 47] of PCT/EP2010/052799, reference compound] | 3 nM | 17 nM | – | –
2 | Cn1c(Nc2c(Cl)ccc(CNC(=O)C(C)(C)C)c2Cl)nc2cc(C(=O)Nc3ccc(Br)cc3)c(OCC(F)F)cc21 [drawing 44] | 2 nM | < 1 nM | – | –
3 | Cn1c(Nc2c(Cl)ccc(CNC(=O)C(C)(C)C)c2Cl)nc2cc(C(=O)NCC3CCC3)c(OCC(F)F)cc21 [Example 46] | – | – | 3 nM | 1 nM
4 | Cn1c(Nc2c(F)ccc(CNC(=O)C(C)(C)C)c2F)nc2cc(C(=O)NCC(F)(F)F)c(OCC(F)F)cc21 [Example 27] | – | – | 4 nM | 124 nM
5 | Cn1c(Nc2c(F)ccc(CNC(=O)C(C)(C)C)c2F)nc2cc(C(=O)Nc3ccc(Br)cc3)c(F)cc21 [Example 9] | – | – | 4 nM | 79 nM
6 | Cn1c(Nc2c(Cl)ccc(CNC(=O)C(C)(C)C)c2Cl)nc2cc(C(=O)NCC(F)(F)F)c(F)cc21 [Example 21] | – | – | 3 nM | 36 nM
7 | Cn1c(Nc2c(Cl)ccc(CNC(=O)C(C)(C)C)c2Cl)nc2cc(C(=O)Nc3ccc(F)c(Cl)c3)c(OC3CCOC3)cc21 (centres unmarked) [Example 179] | – | – | 1 nM | < 1 nM
8 | Cn1c(Nc2c(Cl)ccc(CNC(=O)C(C)(C)C)c2Cl)nc2cc(C(=O)Nc3cccc(C(F)(F)F)n3)c(OCC(F)F)cc21 [Example 66] | – | – | 4 nM | < 1 nM
9 | COC(=O)c1ccc(NC(=O)c2cc3nc(Nc4c(Cl)ccc(CNC(=O)C(C)(C)C)c4Cl)n(C)c3cc2OCC(F)F)s1 [Example 50] | – | – | 4 nM | 1 nM
10 | Cn1c(Nc2c(Cl)ccc(CNC(=O)C(C)(C)C)c2Cl)nc2cc(C(=O)NCc3ccc(F)cc3C(F)(F)F)c(OCC(F)F)cc21 [Example 36] | – | – | 4 nM | < 1 nM
11 | Cn1c(Nc2c(Cl)ccc(CNC(=O)C(C)(C)C)c2Cl)nc2cc(C(=O)NCCC(F)(F)F)c(OCC(F)F)cc21 [Example 48] | – | – | 3 nM | 1 nM
12 | Cn1c(Nc2c(Cl)ccc(CNC(=O)C(C)(C)C)c2Cl)nc2cc(C(=O)Nc3cc(Cl)ccc3Cl)c(F)cc21 [Example 22] | – | – | 2 nM | 1 nM
13 | Cn1c(Nc2c(Cl)ccc(CNC(=O)C(C)(C)C)c2Cl)nc2cc(C(=O)Nc3cc(C(F)(F)F)ccn3)c(OCC(F)F)cc21 [Example 67] | – | – | 2 nM | 1 nM
14 | Cn1c(Nc2c(Cl)ccc(CNC(=O)C(C)(C)C)c2Cl)nc2cc(C(=O)Nc3ccncc3Cl)c(OCC(F)F)cc21 [Example 65] | – | – | 4 nM | 6 nM
15 | Cn1c(Nc2c(Cl)ccc(CNC(=O)C(C)(C)C)c2Cl)nc2cc(C(=O)NCC3CC3(Cl)Cl)c(OCC(F)F)cc21 (centres unmarked) [Example 44] | – | – | 3 nM | 1 nM
16 | Cn1c(Nc2c(Cl)ccc(CNC(=O)C(C)(C)C)c2Cl)nc2cc(C(=O)Nc3ccc(Cl)c(F)c3)c(F)cc21 [Example 19] | – | – | 1 nM | 2 nM
17 | Cn1c(Nc2c(Cl)ccc(CNC(=O)C(C)(C)C)c2Cl)nc2cc(C(=O)Nc3ccc(Br)cc3)c(OCC(F)F)cc21 [Example 5, N-(4-Bromo-phenyl)-2-{2,6-dichloro-3-[(2,2-dimethyl-propionylamino)-methyl]-phenylamino}-6-(2,2-difluoro-ethoxy)-1-methyl-1H-benzimidazole-5-carboxylic acid amide] | – | – | 2 nM | < 1 nM

Row | Compound | IC50 (mPGES-1 [1]; [3]) | IC50 (mPGES-1 [2]; [4]) | IC50 (mPGES-1 [1]; [5]) | IC50 (mPGES-1 [2]; [6])
18 | Cn1c(Nc2c(Cl)ccc(CNC(=O)C(C)(C)C)c2Cl)nc2cc(C(=O)Nc3ncc(Cl)s3)c(OCC(F)F)cc21 [Example 41] | – | – | 4 nM | 1 nM
19 | Cn1c(Nc2c(Cl)ccc(CNC(=O)C(C)(C)C)c2Cl)nc2cc(C(=O)NCC(F)(F)F)c(OCC(F)F)cc21 [Example 58] | – | – | 3 nM | 2 nM
20 | Cn1c(Nc2c(Cl)ccc(CNC(=O)C(C)(C)C)c2Cl)nc2cc(C(=O)NCC(F)(F)C(F)(F)F)c(OCC(F)F)cc21 [Example 38] | – | – | 3 nM | < 1 nM
21 | Cn1c(Nc2c(Cl)ccc(CNC(=O)C(C)(C)C)c2Cl)nc2cc(C(=O)Nc3cc(F)cc(Cl)c3)c(OCC(F)F)cc21 [Example 40] | – | – | 4 nM | < 1 nM
22 | Cn1c(Nc2c(Cl)ccc(CNC(=O)C(C)(C)C)c2Cl)nc2cc(C(=O)NCCC3CC3)c(OCC(F)F)cc21 [Example 51] | – | – | 3 nM | < 1 nM
23 | Cn1c(Nc2c(Cl)ccc(CNC(=O)C(C)(C)C)c2Cl)nc2cc(C(=O)Nc3nc(C(F)(F)F)cs3)c(F)cc21 [Example 70] | – | – | 4 nM | 16 nM
24 | Cn1c(Nc2c(Cl)ccc(CNC(=O)C(C)(C)C)c2Cl)nc2cc(C(=O)Nc3ccc(F)c(Cl)c3)c(OCC(F)F)cc21 [Example 29] | – | – | 4 nM | < 1 nM
25 | Cn1c(Nc2c(Cl)ccc(CNC(=O)C(C)(C)C)c2Cl)nc2cc(C(=O)Nc3ccc(C(F)(F)F)nc3)c(OCC(F)F)cc21 [Example 47] | – | – | 3 nM | < 1 nM
26 | Cn1c(Nc2c(Cl)ccc(CNC(=O)N3CCC(F)(F)C3)c2Cl)nc2cc(C(=O)N[C@H]3CC[C@H](C(F)(F)F)CC3)c(OCC(F)F)cc21 [Example 81] | – | – | 3 nM | 50 nM
27 | Cn1c(Nc2c(Cl)ccc(CNC(=O)C(C)(C)C)c2Cl)nc2cc(C(=O)NCc3ncccc3C(F)(F)F)c(OCC(F)F)cc21 [Example 42] | – | – | 4 nM | < 1 nM
28 | Cn1c(Nc2c(Cl)ccc(CNC(=O)C(C)(C)C)c2Cl)nc2cc(C(=O)Nc3cccc(Cl)c3)c(F)cc21 [Example 18] | – | – | 1 nM | 4 nM
29 | Cn1c(Nc2c(Cl)ccc(CNC(=O)C(C)(C)C)c2Cl)nc2cc(C(=O)NC3CC4CCC3C4)c(OCC(F)F)cc21 (centres unmarked) [Example 55] | – | – | 4 nM | < 1 nM
30 | Cn1c(Nc2c(Cl)ccc(CNC(=O)C(C)(C)C)c2Cl)nc2cc(C(=O)NC3CCC(F)(F)CC3)c(OCC(F)F)cc21 [Example 64] | – | – | 2 nM | < 1 nM
31 | Cn1c(Nc2c(Cl)ccc(CNC(=O)C(C)(C)C)c2Cl)nc2cc(C(=O)NCC3CC3)c(OCC(F)F)cc21 [Example 53] | – | – | 4 nM | 1 nM
32 | Cn1c(Nc2c(Cl)ccc(CNC(=O)C(C)(C)C)c2Cl)nc2cc(C(=O)Nc3cccc(Cl)c3)c(OCC(F)F)cc21 [Example 30] | – | – | 4 nM | < 1 nM
33 | Cn1c(Nc2c(F)ccc(CNC(=O)C(C)(C)C)c2F)nc2cc(C(=O)Nc3ccc(F)c(Cl)c3)c(OCC(F)F)cc21 [Example 26] | – | – | 2 nM | 11 nM
34 | Cc1cc(C#N)c(NC(=O)c2cc3nc(Nc4c(Cl)ccc(CNC(=O)C(C)(C)C)c4Cl)n(C)c3cc2OCC(F)F)s1 [Example 62] | – | – | 2 nM | 1 nM
